pIC50: −log10 of the molar value. Read-outs that look alike come from different tables or passages of the source.
Legend:
JeKo-1 cells = experiment: Antiproliferative effect, MTS cell viability assay, JeKo-1 cells; assay type: cell-based; details: Homo sapiens; JeKo-1 mantle cell lymphoma cells; read-out: IC50 (anti-proliferation) JeKO-1 cells
Procedure, shortened: (§1)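 Readout was MTS-derived formazan absorbance (490 nm) reflecting metabolically active cells. Treatment lasted 72 h over a 0–10 μM range (0.001, 0.01, 0.1, 1, 10 μM) in JeKo-1 and Mino B-cell malignancy cells.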

Mino cells = experiment: Antiproliferative effect, MTS cell viability assay, Mino cells; assay type: cell-based; details: Homo sapiens, Mino mantle cell lymphoma cells, read-out: IC50 (anti-proliferation) Mino cells
Procedure, shortened: as §1

BTK = BTK (Homo sapiens, UniProt Q06187); experiment: Degradation of BTK protein in Namalwa cells (Western blot; DC50, Dmax); details: for DC50: cell line not given
Chain of BTK (Q06187 whole entry): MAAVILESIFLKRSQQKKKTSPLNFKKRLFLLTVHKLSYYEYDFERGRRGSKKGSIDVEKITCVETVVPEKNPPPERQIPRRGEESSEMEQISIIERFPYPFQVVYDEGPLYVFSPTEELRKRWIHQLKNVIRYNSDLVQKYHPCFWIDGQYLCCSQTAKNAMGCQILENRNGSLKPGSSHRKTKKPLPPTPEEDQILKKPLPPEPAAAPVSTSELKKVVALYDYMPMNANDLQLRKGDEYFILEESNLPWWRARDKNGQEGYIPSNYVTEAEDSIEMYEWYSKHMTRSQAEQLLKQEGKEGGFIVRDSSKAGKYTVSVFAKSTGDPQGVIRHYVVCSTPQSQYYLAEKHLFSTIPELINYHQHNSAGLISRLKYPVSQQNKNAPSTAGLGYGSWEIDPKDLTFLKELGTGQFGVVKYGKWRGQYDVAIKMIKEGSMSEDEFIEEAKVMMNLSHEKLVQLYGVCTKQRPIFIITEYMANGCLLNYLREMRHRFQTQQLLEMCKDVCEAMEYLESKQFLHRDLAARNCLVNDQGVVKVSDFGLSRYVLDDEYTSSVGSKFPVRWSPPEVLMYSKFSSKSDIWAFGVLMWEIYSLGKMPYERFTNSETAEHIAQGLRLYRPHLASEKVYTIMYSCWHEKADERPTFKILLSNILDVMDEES

[1] = read-out: DC50 (BTK degradation), concentration giving 50% reduction of BTK expression level
[2] = read-out: Dmax (BTK degradation)

| SMILES | pIC50 (JeKo-1 cells) | pIC50 (Mino cells; MINO) | DC50 (BTK; [1]) | Dmax (BTK; [2]) | Dmax (BTK) | DC50 (BTK; BTK degradation) | degradation of BTK protein (BTK; Namalwa B lymphocyte cells, various concentrations, 24 hours, Western blot) | pIC50 (Mino cells) |
| --- | --- | --- | --- | --- | --- | --- | --- | --- |
| NC(=O)c1c(-c2ccc(Oc3ccccc3)cc2)nn2c1NCC[C@H]2C1CCN(CC2CCN(C(=O)N3CCC(N4CCC(c5ccc6c(c5)CN(C5CCC(=O)NC5=O)C6=O)CC4)CC3)CC2)CC1 (stereo partly drawn) [Compound 408, (7S)-7-(1-((1-(4-(2-(2,6-dioxopiperidin-3-yl)-1-oxoisoindolin-5-yl)-[1,4′-bipiperidine]-1′-carbonyl)piperidin-4-yl)methyl)piperidin-4-yl)-2-(4-phenoxyphenyl)-4,5,6,7-tetrahydropyrazolo[1,5-a]pyrimidine-3-carboxamide] | 5.00 to 6.00 | < 5.00 | 10 to 50 nM | > 75% | – | – | – | – |
| NC(=O)c1c(-c2ccc(Oc3ccccc3)cc2)nn2c1NCC[C@H]2C1CCN(CC2CCN(CCC3CCN(c4ccc5c(c4)CN(C4CCC(=O)NC4=O)C5=O)CC3)CC2)CC1 (stereo partly drawn) [Compound 334, (7S)-7-(1-((1-(2-(1-(2-(2,6-dioxopiperidin-3-yl)-1-oxoisoindolin-5-yl)piperidin-4-yl)ethyl)piperidin-4-yl)methyl)piperidin-4-yl)-2-(4-phenoxyphenyl)-4,5,6,7-tetrahydropyrazolo[1,5-a]pyrimidine-3-carboxamide] | < 5.00 | < 5.00 | – | – | > 75% | 10 to 50 nM | – | – |
| Nc1ncnc2c1c(-c1ccc(Oc3ccccc3)cc1)nn2C1CCN(CCCCC#Cc2ccc(N3CCC(=O)NC3=O)cc2)CC1 [Compound 539, 1-(4-(6-(4-(4-amino-3-(4-phenoxyphenyl)-1H-pyrazolo[3,4-d]pyrimidin-1-yl)piperidin-1-yl)hex-1-yn-1-yl)phenyl)dihydropyrimidine-2,4(1H,3H)-dione] | < 5.00 | < 5.00 | > 50 nM | > 50% | – | – | – | – |
| Nc1ncnc2c1c(-c1ccc(Oc3ccccc3)cc1)nn2C1CCN(C2CCN(CC3CN(c4ccc5c(c4)CN(C4CCC(=O)NC4=O)C5=O)C3)C2)CC1 (stereo not drawn) [Compound 426, 3-(5-(3-((3-(4-(4-amino-3-(4-phenoxyphenyl)-1H-pyrazolo[3,4-d]pyrimidin-1-yl)piperidin-1-yl)pyrrolidin-1-yl)methyl)azetidin-1-yl)-1-oxoisoindolin-2-yl)piperidine-2,6-dione] | > 6.00 | > 6.00 | 10 to 50 nM | > 90% | – | – | – | – |
| Nc1ncnc2c1c(-c1ccc(Oc3ccccc3)cc1)nn2C1CCN(CC2CCN(/C=C\C(=O)CN3CCN(c4ccc5c(c4)CN(C4CCC(=O)NC4=O)C5=O)CC3)CC2)CC1 (stereo not drawn) [Compound 421, (Z)-3-(5-(4-(4-(4-((4-(4-amino-3-(4-phenoxyphenyl)-1H-pyrazolo[3,4-d]pyrimidin-1-yl)piperidin-1-yl)methyl)piperidin-1-yl)-2-oxobut-3-en-1-yl)piperazin-1-yl)-1-oxoisoindolin-2-yl)piperidine-2,6-dione] | 5.00 to 6.00 | 5.00 to 6.00 | < 10 nM | > 90% | – | – | dose-dependent degradation | – |
| NC(=O)c1c(-c2ccc(Oc3ccccc3)cc2)nn2c1NCC[C@H]2C1CCN(C(=O)N2CCC(CCN3CCC(c4ccc5c(c4)CN(C4CCC(=O)NC4=O)C5=O)CC3)CC2)CC1 (stereo partly drawn) [Compound 302, (7S)-7-(1-(4-(2-(4-(2-(2,6-dioxopiperidin-3-yl)-1-oxoisoindolin-5-yl)piperidin-1-yl)ethyl)piperidine-1-carbonyl)piperidin-4-yl)-2-(4-phenoxyphenyl)-4,5,6,7-tetrahydropyrazolo[1,5-a]pyrimidine-3-carboxamide] | 5.00 to 6.00 | 5.00 to 6.00 | – | – | > 75% | 10 to 50 nM | – | – |
| NC1=NC=NC2C1C(c1ccc(Oc3ccccc3)cc1)=NN2[C@@H]1CCCN(C(=O)N2CCN(C3CN(c4ccc5c(c4)C(=O)N(C4CCC(=O)NC4=O)C5=O)C3)CC2)C1 (stereo partly drawn) [Compound 505, 5-(3-(4-((3R)-3-(4-amino-3-(4-phenoxyphenyl)-3a,7a-dihydro-1H-pyrazolo[3,4-d]pyrimidin-1-yl)piperidine-1-carbonyl)piperazin-1-yl)azetidin-1-yl)-2-(2,6-dioxopiperidin-3-yl)isoindoline-1,3-dione] | > 6.00 | > 6.00 | 10 to 50 nM | > 75% | – | – | – | – |
| NC(=O)c1c(-c2ccc(Oc3ccccc3)cc2)nn2c1NCCC2C1CCN(C2CCN(C(=O)N3CCC(N4CCN(c5ccc6c(c5)C(=O)N(C5CCC(=O)NC5=O)C6=O)CC4)CC3)CC2)CC1 (stereo not drawn) [Compound 341, 7-(1′-(4-(4-(2-(2,6-dioxopiperidin-3-yl)-1,3-dioxoisoindolin-5-yl)piperazin-1-yl)piperidine-1-carbonyl)-[1,4′-bipiperidin]-4-yl)-2-(4-phenoxyphenyl)-4,5,6,7-tetrahydropyrazolo[1,5-a]pyrimidine-3-carboxamide] | > 6.00 | 5.00 to 6.00 | – | – | > 90% | 10 to 50 nM | – | – |
| NC(=O)c1c(-c2ccc(Oc3ccccc3)cc2)nn2c1NCC[C@H]2C1CCN(C2CCN(C(=O)N3CCC(C4CCN(c5ccc6c(c5)CN(C5CCC(=O)NC5=O)C6=O)CC4)CC3)CC2)CC1 (stereo partly drawn) [Compound 384, (7S)-7-(1′-(1′-(2-(2,6-dioxopiperidin-3-yl)-1-oxoisoindolin-5-yl)-[4,4′-bipiperidine]-1-carbonyl)-[1,4′-bipiperidin]-4-yl)-2-(4-phenoxyphenyl)-4,5,6,7-tetrahydropyrazolo[1,5-a]pyrimidine-3-carboxamide] | 5.00 to 6.00 | > 6.00 | – | – | > 90% | < 10 nM | – | – |
| NC1=NC=NC2C1C(c1ccc(Oc3ccccc3)cc1)=NN2[C@@H]1CCCN(C(=O)N2CCN(C3CN(c4ccc5c(c4)CN(C4CCC(=O)NC4=O)C5=O)C3)CC2)C1 (stereo partly drawn) [Compound 506, 3-(5-(3-(4-((3R)-3-(4-amino-3-(4-phenoxyphenyl)-3a,7a-dihydro-1H-pyrazolo[3,4-d]pyrimidin-1-yl)piperidine-1-carbonyl)piperazin-1-yl)azetidin-1-yl)-1-oxoisoindolin-2-yl)piperidine-2,6-dione] | > 6.00 | > 6.00 | 10 to 50 nM | > 90% | – | – | – | – |
| Nc1ncnc2c1c(-c1ccc(Oc3ccccc3)cc1)nn2C1CCN(CCN2CCC(CN3CCN(c4ccc5c(c4)C(=O)N(C4CCC(=O)NC4=O)C5=O)CC3)C2)CC1 (stereo not drawn) [Compound 455, 5-(4-((1-(2-(4-(4-amino-3-(4-phenoxyphenyl)-1H-pyrazolo(3,4-d)pyrimidin-1-yl)piperidin-1-yl)ethyl)pyrrolidin-3-yl)methyl)piperazin-1-yl)-2-(2,6-dioxopiperidin-3-yl)isoindoline-1,3-dione] | > 6.00 | – | < 10 nM | > 90% | – | – | – | > 6.00 |
| Nc1ncnc2c1c(-c1ccc(Oc3ccccc3)cc1)nn2C1CCN(CC2CN(CC3CCN(c4ccc5c(c4)CN(C4CCC(=O)NC4=O)C5=O)C3)C2)CC1 (stereo not drawn) [Compound 444, 3-(5-(3-((3-((4-(4-amino-3-(4-phenoxyphenyl)-1H-pyrazolo[3,4-d]pyrimidin-1-yl)piperidin-1-yl)methyl)azetidin-1-yl)methyl)pyrrolidin-1-yl)-1-oxoisoindolin-2-yl)piperidine-2,6-dione] | > 6.00 | > 6.00 | < 10 nM | > 90% | – | – | – | – |
| NC(=O)c1c(-c2ccc(Oc3ccccc3)cc2)nn2c1NCCC2C1CCN(C2CCN(C(=O)N3CCC(CC4CCN(c5ccc6c(c5)CN(C5CCC(=O)NC5=O)C6=O)CC4)CC3)CC2)CC1 (stereo not drawn) [Compound 354, 7-(1′-(4-((1-(2-(2,6-dioxopiperidin-3-yl)-1-oxoisoindolin-5-yl)piperidin-4-yl)methyl)piperidine-1-carbonyl)-[1,4′-bipiperidin]-4-yl)-2-(4-phenoxyphenyl)-4,5,6,7-tetrahydropyrazolo[1,5-a]pyrimidine-3-carboxamide] | 5.00 to 6.00 | 5.00 to 6.00 | – | – | > 90% | 10 to 50 nM | – | – |
| NC1=NC=NC2C1C(c1ccc(Oc3ccccc3)cc1)=NN2C1CCCN(C2CN(C(=O)N3CC(C4CN(c5ccc6c(c5)C(=O)N(C5CCC(=O)NC5=O)C6=O)C4)C3)C2)C1 (stereo not drawn) [Compound 501] | > 6.00 | 5.00 to 6.00 | 10 to 50 nM | > 90% | – | – | – | – |
| NC(=O)c1c(-c2ccc(Oc3ccccc3)cc2)nn2c1NCCC2C1CCN(CC2CCN(C(=O)N3CCC(C4CCN(c5ccc6c(c5)CN(C5CCC(=O)NC5=O)C6=O)CC4)CC3)CC2)CC1 (stereo not drawn) [Compound 366, 7-(1-((1-(1′-(2-(2,6-dioxopiperidin-3-yl)-1-oxoisoindolin-5-yl)-[4,4′-bipiperidine]-1-carbonyl)piperidin-4-yl)methyl)piperidin-4-yl)-2-(4-phenoxyphenyl)-4,5,6,7-tetrahydropyrazolo[1,5-a]pyrimidine-3-carboxamide] | > 6.00 | > 6.00 | – | – | > 90% | < 10 nM | – | – |
| Nc1ncnc2c1c(-c1ccc(Oc3ccccc3)cc1)nn2C1CCN(C2CCN(CCCN3CCC(c4ccc(N5CCC(=O)NC5=O)cc4)CC3)CC2)CC1 [Compound 571, 1-(4-(1-(3-(4-(4-amino-3-(4-phenoxyphenyl)-1H-pyrazolo[3,4-d]pyrimidin-1-yl)-[1,4′-bipiperidin]-1′-yl)propyl)piperidin-4-yl)phenyl)dihydropyrimidine-2,4(1H,3H)-dione] | > 6.00 | > 6.00 | 10 to 50 nM | > 90% | – | – | – | – |
| NC(=O)c1c(-c2ccc(Oc3ccccc3)cc2)nn2c1NCCC2C1CCN(C(=O)N2CCC(CN3CCN(c4ccc5c(c4)CN(C4CCC(=O)NC4=O)C5=O)CC3)CC2)CC1 (stereo not drawn) [Compound 276, 7-(1-(4-((4-(2-(2,6-dioxopiperidin-3-yl)-1-oxoisoindolin-5-yl)piperazin-1-yl)methyl)piperidine-1-carbonyl)piperidin-4-yl)-2-(4-phenoxyphenyl)-4,5,6,7-tetrahydropyrazolo[1,5-a]pyrimidine-3-carboxamide] | > 6.00 | > 6.00 | – | – | > 90% | < 10 nM | – | – |
